From US11021521B2, “Pore-modified gram-negative bacteria and uses thereof” (priority 2015, dated 2021) come the findings set out here.

Values after ≈ are worked out from the molar mass of the structure shown. Values joined by “and” are separate entries in the source; they are usually repeats but may differ in a detail not shown here. Equal values may be shown once.

The test system of series [1] is B. thailandensis Bt-RHA-BtPore (hyperporinated). The experiment in a line: microbe, parasite or virus in culture. The class given is cell-based.
In series [2] the test system is B. thailandensis cells (Bt-RHA and derivatives).
Series [3] concerns P. aeruginosa PaΔ3-LAC (efflux-deficient). Nature of the series: microbe, parasite or virus in culture. The class given is cell-based. To be noted: at least three independent measurements.
The subject of series [4] is A. baumannii AbΔ3-ARA-EcPore (efflux-deficient, hyperporinated). Nature of the series: microbe, parasite or virus in culture. The class given is cell-based. The following applies: for MIC: AbΔ3-ARA-EcPore.
Series [5] deals with B. thailandensis BtΔ2-RHA (efflux-deficient). The experiment in a line: microbe, parasite or virus in culture. It is filed as cell-based.
The subject of series [6] is A. baumannii cells (Ab-ARA and derivatives). The experiment in a line: Fluorescent probe uptake assay, A. baumannii strains. To be noted: AbΔ3-ARA vs Ab-ARA, fluorescence.
The test system of series [7] is P. aeruginosa cells (PAO1-LAC and derivatives). Nature of the series: Fluorescent probe uptake assay, P. aeruginosa strains. The following applies: PΔ3-LAC vs PAO1-LAC, fluorescence.
Series [8] deals with B. thailandensis Bt-RHA (wild type, empty cassette). The experiment in a line: microbe, parasite or virus in culture. The class given is cell-based.
For series [9], the system named is B. cepacia Bc-RHA-BtPore (hyperporinated). The experiment in a line: microbe, parasite or virus in culture. The class given is cell-based. To be noted: Bc: Bc-RHA-BtPore vs parent.
The subject of series [10] is A. baumannii Ab-ARA-EcPore (hyperporinated). Nature of the series: microbe, parasite or virus in culture. The class given is cell-based.
The subject of series [11] is P. aeruginosa PAO1-LAC (wild type, empty cassette). Nature of the series: microbe, parasite or virus in culture. The following applies: at least three independent measurements. It is filed as cell-based.
Series [12] deals with P. aeruginosa PAO1-LAC-EcPore (hyperporinated). Nature of the series: microbe, parasite or virus in culture. It is filed as cell-based.
The test system of series [13] is P. aeruginosa PaΔ3-LAC-EcPore (efflux-deficient, hyperporinated). The experiment in a line: microbe, parasite or virus in culture. The class given is cell-based.
For series [14], the system named is A. baumannii AbΔ3-ARA (efflux-deficient). Nature of the series: microbe, parasite or virus in culture. The class given is cell-based.
In series [15] the test system is A. baumannii Ab-ARA (wild type, empty cassette). Nature of the series: microbe, parasite or virus in culture. The following applies: at least three independent measurements. It is filed as cell-based.

As for `CCOc1ccc(-c2nc3ccc(-c4nc5ccc(N6CCN(C)CC6)cc5[nH]4)cc3[nH]2)cc1` [HT, Hoechst 33342], the MIC in series [1] was above 64 µM; in series [3], 16 µg/mL (≈ 35.4 µM); in [4] it was 0.025 to 0.05 µM; in [4] (at least three independent measurements), 0.025 µg/mL; in series [5], 1 µM (≈ 0.453 µg/mL); in series [8], above 64 µM. Further, the MIC in series [10] (Ab-ARA-EcPore, at least three independent measurements) is 3.125 µg/mL (≈ 6.91 µM); in [11], above 64 µg/mL; in series [12] (PAO1-LAC-EcPore, at least three independent measurements), 64 µg/mL (≈ 141 µM); in series [13] (PaΔ3-LAC-EcPore, at least three independent measurements) it was 2 µg/mL; in series [13] (PΔ3-LAC-EcPore), 2.0 µM; in series [14] (AbΔ3-ARA, at least three independent measurements), 0.78 µg/mL (≈ 1.72 µM). Moreover, the MIC in series [15] worked out at 25 µg/mL (≈ 55.2 µM). For the same compound, the figures for the “Change of intracellular accumulation of probe by inactivation of efflux” value in [2], in series [6] and in series [7] were “up to 2 fold”, “up to 2 fold” and “lower than those in the parent PAO1-LAC”, respectively. In addition, the “Fold change of MIC by efflux inactivation plus hyperporination” value in series [4] (AbΔ3-ARA-EcPore vs Ab-ARA) was 1000 fold. For the same compound, the “Fold decrease of MIC (potentiation) by hyperporination” value in series [9] is above 4 fold; in series [10] (Abau: Ab-ARA-EcPore vs parent) it was 4 to 8 fold and 8 fold; in series [12] (Pae: PAO1-LAC-EcPore vs parent), 4 to 8 fold. Also, in series [14] (Abau: AbΔ3-ARA vs Ab-ARA), the “Fold reduction of MIC by inactivation of efflux” value turned out to be 32 fold.
